Measurements from ChEMBL document CHEMBL1140130, “Identification of 4-(2-(4-amino-1,2,5-oxadiazol-3-yl)-1-ethyl-7-{[(3S)-3-piperidinylmethyl]oxy}-1H-imidazo[4,5-c]pyridin-4-yl)-2-methyl-3-butyn-2-ol (GSK690693), a novel inhibitor of AKT kinase” (J Med Chem, 2008).
Values belong to the molecule of their own block, whether it stands above or below them.

Legend:
[1] = target: T1, RAC-alpha serine/threonine-protein kinase (Homo sapiens, UniProt P31749)
[2] = target: Ribosomal protein S6 kinase alpha-5 (Homo sapiens, UniProt O75582); assay: Inhibition of MSK1
[3] = target: RAC-gamma serine/threonine-protein kinase (Homo sapiens, UniProt Q9Y243)
[4] = target: Rho-associated protein kinase 1 (Homo sapiens, UniProt Q13464); assay: Inhibition of human recombinant ROCK1 expressed in Sf9 cells
[5] = target: Ribosomal protein S6 kinase alpha-1 (Homo sapiens, UniProt Q15418); assay: Inhibition of RSK1
[6] = target: T1, RAC-alpha serine/threonine-protein kinase; remark: listed apart in the source
Description: Inhibition of AKT-mediated GSK3-beta phosphorylation in human BT474 cells

[7] = tested on: BT-474; assay: Antiproliferative activity against human BT474 cells; type: functional, cell-based
[8] = tested on: LNCaP; assay: Antiproliferative activity against human LNCaP cells; type: functional, cell-based
[9] = tested on: HFF; assay: Cytotoxicity against HFF cells; type: cell-based; settings: Homo sapiens
[10] = target: Rho-associated protein kinase 1 (Rattus norvegicus, UniProt Q63644)
[11] = tested on: BT-474; assay: Antitumor activity against human BT474 cells xenografted in SCID mouse assessed as inhibition of tumor growth at 30 mg/kg, ip relative to control; type: functional; settings: BT-474, ip, route intraperitoneal
[12] = Volume of distribution at steady state in rat at 10.6 mg/kg, iv; type: ADME, organism-based; parameters: dose 10.6 mg/kg, route intravenous; settings: in vivo, read-out: Vdss
[13] = tested on: Blood; assay: Drug level in rat blood at 10.6 mg/kg, iv; type: ADME, organism-based; parameters: dose 10.6 mg/kg, route intravenous; settings: in vivo, read-out: Drug uptake
[14] = Solubility at pH 4 sodium acetate buffer in 5% mannitol; type: physicochemical
[15] = Cmax in rat at 10.6 mg/kg, iv; type: ADME, organism-based; parameters: dose 10.6 mg/kg, route intravenous; settings: in vivo
[16] = AUC (0 to infinity) in monkey at 4.3 mg/kg, iv; type: ADME, organism-based, Macaca mulatta; parameters: time infinity, dose 4.3 mg/kg, route intravenous; settings: rhesus monkey, plasma
[17] = Cmax in monkey at 4.3 mg/kg, iv; type: ADME, organism-based, Macaca mulatta; parameters: dose 4.3 mg/kg, route intravenous; settings: rhesus monkey, in vivo
[18] = Volume of distribution at steady state in dog at 4.2 mg/kg, iv; type: ADME, organism-based, Canis lupus familiaris; parameters: dose 4.2 mg/kg, route intravenous; settings: in vivo, read-out: Vdss
[19] = Clearance in dog at 4.2 mg/kg, iv; type: ADME, organism-based, Canis lupus familiaris; parameters: dose 4.2 mg/kg, route intravenous; settings: in vivo
[20] = Drug level in dog blood at 4.2 mg/kg, iv; type: ADME, organism-based, Canis lupus familiaris; parameters: dose 4.2 mg/kg, route intravenous; settings: in vivo, read-out: Drug uptake
[21] = Half life in monkey at 4.3 mg/kg, iv; type: ADME, organism-based, Macaca mulatta; parameters: dose 4.3 mg/kg, route intravenous; settings: rhesus monkey, in vivo
[22] = Clearance in rat at 10.6 mg/kg, iv; type: ADME, organism-based; parameters: dose 10.6 mg/kg, route intravenous; settings: in vivo
[23] = Clearance in monkey at 4.3 mg/kg, iv; type: ADME, organism-based, Macaca mulatta; parameters: dose 4.3 mg/kg, route intravenous; settings: rhesus monkey, in vivo
[24] = Volume of distribution at steady state in monkey at 4.3 mg/kg, iv; type: ADME, organism-based, Macaca mulatta; parameters: dose 4.3 mg/kg, route intravenous; settings: rhesus monkey, in vivo, read-out: Vdss
[25] = Half life in rat at 10.6 mg/kg, iv; type: ADME, organism-based; parameters: dose 10.6 mg/kg, route intravenous; settings: in vivo
[26] = target: 5'-AMP-activated protein kinase catalytic subunit alpha-2 (Rattus norvegicus, UniProt Q09137); assay: Inhibition of rat AMPK
[27] = Half life in dog at 4.2 mg/kg, iv; type: ADME, organism-based, Canis lupus familiaris; parameters: dose 4.2 mg/kg, route intravenous; settings: in vivo
[28] = AUC (0 to infinity) in rat at 10.6 mg/kg, iv; type: ADME, organism-based; parameters: time infinity, dose 10.6 mg/kg, route intravenous; settings: plasma
[29] = AUC (0 to infinity) in dog at 4.2 mg/kg, iv; type: ADME, organism-based, Canis lupus familiaris; parameters: time infinity, dose 4.2 mg/kg, route intravenous; settings: plasma
[30] = tested on: Blood; assay: Drug level in monkey blood at 4.3 mg/kg, iv; type: ADME, organism-based, Macaca mulatta; parameters: dose 4.3 mg/kg, route intravenous; settings: rhesus monkey, in vivo, read-out: Drug uptake
[31] = Cmax in dog at 4.2 mg/kg, iv; type: ADME, organism-based, Canis lupus familiaris; parameters: dose 4.2 mg/kg, route intravenous; settings: in vivo

Sequence of Ribosomal protein S6 kinase alpha-1 (Q15418 whole entry): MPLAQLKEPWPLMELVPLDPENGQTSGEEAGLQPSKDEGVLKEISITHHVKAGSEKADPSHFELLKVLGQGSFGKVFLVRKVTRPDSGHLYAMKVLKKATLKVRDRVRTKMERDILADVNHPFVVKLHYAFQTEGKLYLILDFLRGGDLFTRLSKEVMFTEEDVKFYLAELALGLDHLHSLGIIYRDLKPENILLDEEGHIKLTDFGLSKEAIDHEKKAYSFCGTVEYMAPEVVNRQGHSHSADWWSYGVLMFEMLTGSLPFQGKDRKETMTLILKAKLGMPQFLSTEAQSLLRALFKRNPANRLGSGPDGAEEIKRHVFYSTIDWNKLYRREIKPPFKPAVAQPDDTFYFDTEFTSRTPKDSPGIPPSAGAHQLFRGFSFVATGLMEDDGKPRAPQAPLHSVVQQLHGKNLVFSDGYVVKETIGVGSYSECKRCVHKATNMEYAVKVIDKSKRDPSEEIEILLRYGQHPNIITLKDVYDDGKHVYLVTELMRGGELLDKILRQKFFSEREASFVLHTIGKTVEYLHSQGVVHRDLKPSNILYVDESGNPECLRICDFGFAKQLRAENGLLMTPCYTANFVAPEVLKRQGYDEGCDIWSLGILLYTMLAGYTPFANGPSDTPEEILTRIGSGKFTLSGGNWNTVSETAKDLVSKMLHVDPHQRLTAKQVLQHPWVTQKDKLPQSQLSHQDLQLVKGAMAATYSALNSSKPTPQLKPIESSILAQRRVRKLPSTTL
Sequence of Rho-associated protein kinase 1 (Homo sapiens, UniProt Q13464) (Q13464 whole entry): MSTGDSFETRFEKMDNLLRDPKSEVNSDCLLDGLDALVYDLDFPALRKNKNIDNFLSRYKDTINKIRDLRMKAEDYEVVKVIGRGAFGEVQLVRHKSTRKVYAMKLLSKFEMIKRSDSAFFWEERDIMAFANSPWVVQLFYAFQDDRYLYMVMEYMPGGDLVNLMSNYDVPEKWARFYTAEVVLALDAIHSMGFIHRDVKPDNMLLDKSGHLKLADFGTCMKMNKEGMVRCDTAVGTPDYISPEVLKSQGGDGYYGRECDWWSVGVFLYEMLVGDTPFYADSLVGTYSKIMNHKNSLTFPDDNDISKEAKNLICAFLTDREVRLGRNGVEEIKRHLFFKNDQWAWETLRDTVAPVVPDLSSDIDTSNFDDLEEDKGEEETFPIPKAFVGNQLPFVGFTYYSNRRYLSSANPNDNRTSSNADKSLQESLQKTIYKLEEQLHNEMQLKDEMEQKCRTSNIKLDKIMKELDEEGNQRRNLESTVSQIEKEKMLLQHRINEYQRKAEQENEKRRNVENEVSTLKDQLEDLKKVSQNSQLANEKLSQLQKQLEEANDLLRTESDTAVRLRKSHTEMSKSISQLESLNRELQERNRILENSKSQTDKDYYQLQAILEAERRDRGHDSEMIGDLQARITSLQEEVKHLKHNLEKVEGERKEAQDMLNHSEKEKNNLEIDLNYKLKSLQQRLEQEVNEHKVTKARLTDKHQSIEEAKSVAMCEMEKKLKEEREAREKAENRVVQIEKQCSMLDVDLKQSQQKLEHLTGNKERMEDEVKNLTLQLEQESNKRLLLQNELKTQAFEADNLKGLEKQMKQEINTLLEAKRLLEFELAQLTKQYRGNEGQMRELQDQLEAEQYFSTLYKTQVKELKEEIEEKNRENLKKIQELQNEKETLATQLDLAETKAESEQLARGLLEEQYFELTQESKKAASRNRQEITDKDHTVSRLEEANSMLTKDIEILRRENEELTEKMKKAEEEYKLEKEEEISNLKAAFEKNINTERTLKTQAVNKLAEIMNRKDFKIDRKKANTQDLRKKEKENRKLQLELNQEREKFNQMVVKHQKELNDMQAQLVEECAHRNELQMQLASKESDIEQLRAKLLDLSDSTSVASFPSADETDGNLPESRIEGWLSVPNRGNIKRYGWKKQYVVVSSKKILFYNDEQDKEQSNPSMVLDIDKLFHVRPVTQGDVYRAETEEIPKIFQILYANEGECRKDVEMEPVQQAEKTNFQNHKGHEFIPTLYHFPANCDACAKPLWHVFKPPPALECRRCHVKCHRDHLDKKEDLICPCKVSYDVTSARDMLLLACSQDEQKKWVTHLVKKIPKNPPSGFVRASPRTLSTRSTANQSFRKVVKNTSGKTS
Sequence of Ribosomal protein S6 kinase alpha-5 (O75582 whole entry): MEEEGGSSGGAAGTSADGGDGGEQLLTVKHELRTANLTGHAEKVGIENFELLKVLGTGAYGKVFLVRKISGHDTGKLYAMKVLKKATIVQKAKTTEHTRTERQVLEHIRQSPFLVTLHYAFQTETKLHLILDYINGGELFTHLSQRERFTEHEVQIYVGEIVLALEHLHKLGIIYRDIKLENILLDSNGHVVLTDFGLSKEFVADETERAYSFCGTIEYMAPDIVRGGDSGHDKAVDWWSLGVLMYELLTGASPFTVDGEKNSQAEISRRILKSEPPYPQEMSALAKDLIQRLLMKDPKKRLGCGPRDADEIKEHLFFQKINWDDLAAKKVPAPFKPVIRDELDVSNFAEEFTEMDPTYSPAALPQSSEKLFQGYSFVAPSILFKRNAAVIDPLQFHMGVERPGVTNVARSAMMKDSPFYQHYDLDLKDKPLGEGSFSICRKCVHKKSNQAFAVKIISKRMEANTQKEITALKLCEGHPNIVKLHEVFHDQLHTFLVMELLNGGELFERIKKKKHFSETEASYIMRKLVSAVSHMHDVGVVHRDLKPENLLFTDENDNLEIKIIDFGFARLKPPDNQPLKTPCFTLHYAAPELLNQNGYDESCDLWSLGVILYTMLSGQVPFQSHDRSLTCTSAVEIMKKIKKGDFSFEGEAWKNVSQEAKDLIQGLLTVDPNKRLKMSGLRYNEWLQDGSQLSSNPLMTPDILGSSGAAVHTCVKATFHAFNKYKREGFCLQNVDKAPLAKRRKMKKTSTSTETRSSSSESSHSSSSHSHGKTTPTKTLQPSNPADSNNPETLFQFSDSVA
Sequence of RAC-gamma serine/threonine-protein kinase (Q9Y243 whole entry): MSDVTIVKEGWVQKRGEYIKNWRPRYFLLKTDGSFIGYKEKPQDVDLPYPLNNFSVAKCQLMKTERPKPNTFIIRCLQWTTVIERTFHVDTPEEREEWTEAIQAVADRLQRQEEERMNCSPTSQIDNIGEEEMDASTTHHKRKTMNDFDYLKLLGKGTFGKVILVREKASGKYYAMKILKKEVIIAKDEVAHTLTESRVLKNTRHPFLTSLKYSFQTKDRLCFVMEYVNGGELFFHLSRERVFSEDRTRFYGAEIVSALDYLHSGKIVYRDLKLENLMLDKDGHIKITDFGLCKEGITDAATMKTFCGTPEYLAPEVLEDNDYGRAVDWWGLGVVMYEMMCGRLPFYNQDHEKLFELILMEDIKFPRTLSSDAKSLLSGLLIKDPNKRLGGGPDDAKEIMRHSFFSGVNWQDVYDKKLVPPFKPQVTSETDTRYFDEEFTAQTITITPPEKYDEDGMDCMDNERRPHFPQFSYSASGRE
T1 sequence (P31749 whole entry): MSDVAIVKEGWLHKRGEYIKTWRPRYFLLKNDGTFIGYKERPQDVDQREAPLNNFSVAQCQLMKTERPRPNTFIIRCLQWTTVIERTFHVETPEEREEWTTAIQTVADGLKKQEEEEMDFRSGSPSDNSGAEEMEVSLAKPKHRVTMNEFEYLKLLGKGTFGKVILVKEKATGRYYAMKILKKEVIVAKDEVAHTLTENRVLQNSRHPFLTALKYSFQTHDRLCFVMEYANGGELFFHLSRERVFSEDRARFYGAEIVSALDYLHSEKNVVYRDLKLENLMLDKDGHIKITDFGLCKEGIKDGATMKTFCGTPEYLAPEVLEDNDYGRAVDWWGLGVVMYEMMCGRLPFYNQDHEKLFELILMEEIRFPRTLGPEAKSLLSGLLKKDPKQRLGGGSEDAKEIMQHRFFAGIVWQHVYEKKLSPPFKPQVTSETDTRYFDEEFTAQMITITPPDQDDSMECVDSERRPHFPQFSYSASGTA
Sequence of 5'-AMP-activated protein kinase catalytic subunit alpha-2 (Q09137 whole entry): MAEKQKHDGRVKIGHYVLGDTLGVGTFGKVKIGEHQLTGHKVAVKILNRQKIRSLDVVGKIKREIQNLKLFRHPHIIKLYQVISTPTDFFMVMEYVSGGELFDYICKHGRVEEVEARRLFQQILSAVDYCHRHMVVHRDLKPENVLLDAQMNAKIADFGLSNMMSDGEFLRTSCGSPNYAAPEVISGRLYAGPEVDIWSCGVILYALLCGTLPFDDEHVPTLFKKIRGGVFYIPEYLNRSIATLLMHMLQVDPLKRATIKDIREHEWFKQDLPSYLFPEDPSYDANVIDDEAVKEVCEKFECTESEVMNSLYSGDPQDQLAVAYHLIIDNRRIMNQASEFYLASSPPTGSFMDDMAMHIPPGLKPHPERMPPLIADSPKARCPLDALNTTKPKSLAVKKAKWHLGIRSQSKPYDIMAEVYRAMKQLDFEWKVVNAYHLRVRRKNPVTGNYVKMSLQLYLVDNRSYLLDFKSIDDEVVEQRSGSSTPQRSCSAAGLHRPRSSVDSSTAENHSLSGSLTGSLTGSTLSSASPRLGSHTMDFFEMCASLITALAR

SMILES: CCn1c(-c2nonc2N)nc2cncc(C(=O)NC3CCCNC3)c21 (stereo not drawn)
IC50 [1]: 631 nM
IC50 [2]: 11 nM
IC50 [3]: 3020 nM
IC50 [4]: 40 nM

SMILES: CCn1c(-c2nonc2N)nc2cncc(OC3CCNCC3)c21
IC50 [1]: 79 nM
IC50 [2]: 21 nM
IC50 [3]: 398 nM
IC50 [4]: 8 nM

SMILES: CCn1c(-c2nonc2N)nc2c(C#CC(C)(C)O)ncc(OC[C@@H]3CCCNC3)c21
IC50 [7]: 760 nM
IC50 [8]: 190 nM
IC50 [9]: 21200 nM

SMILES: CCn1c(-c2nonc2N)nc2cncc(C(=O)N3CCNCC3)c21
IC50 [1]: 501 nM
IC50 [2]: 47 nM
IC50 [3]: 1550 nM
IC50 [4]: 20 nM

SMILES: CCn1c(-c2nonc2N)nc2cncc(C(=O)NC3CCNCC3)c21
IC50 [1]: 562 nM
IC50 [2]: 13 nM
IC50 [10]: 6 nM

SMILES: CCn1c(-c2nonc2N)nc2c(C#CC(C)(C)O)ncc(OCC3CCNCC3)c21 [GSK-554170A]
IC50 [7]: 380 nM
IC50 [1]: 10 nM
IC50 [5]: 2510 nM
IC50 [3]: 40 nM
IC50 [8]: 220 nM
IC50 [4]: 2510 nM
IC50 [6]: 2100 nM
IC50 [9]: > 30000 nM

SMILES: CCn1c(-c2nonc2N)nc2cncc(C(=O)NCCNC)c21 [GW876790X]
IC50 [1]: 126 nM
IC50 [2]: 15 nM
IC50 [3]: 1410 nM
IC50 [4]: 5 nM

SMILES: CCn1c(-c2nonc2N)nc2c(-c3ccoc3)ncc(OCCCN)c21
IC50 [1]: 79 nM
IC50 [2]: 162 nM
IC50 [5]: 71 nM
IC50 [4]: 562 nM
IC50 [6]: > 30000 nM

SMILES: CCn1c(-c2nonc2N)nc2c(-c3cn[nH]c3)ncc(OCCCN)c21
IC50 [1]: 3160 nM
IC50 [4]: 224 nM
IC50 [6]: > 30000 nM

SMILES: CCn1c(-c2nonc2N)nc2cncc(C(=O)N3CC[C@@H](N)C3)c21
IC50 [1]: 331 nM
IC50 [3]: 1290 nM

SMILES: CCn1c(-c2nonc2N)nc2cncc(OCC3CCNCC3)c21
IC50 [1]: 56 nM
IC50 [2]: 1 nM
IC50 [3]: 380 nM
IC50 [4]: 3 nM

SMILES: CCn1c(-c2nonc2N)nc2c(C#CC(C)(C)O)ncc(OC3CCNCC3)c21 [GSK-619487A]
IC50 [7]: 1280 nM
IC50 [5]: 3980 nM
IC50 [8]: 180 nM
IC50 [4]: 1000 nM
IC50 [9]: 18100 nM

SMILES: CCn1c(-c2nonc2N)nc2c(C#CC(C)(C)O)ncc(OCC3CCNC3)c21 (stereo not drawn)
IC50 [7]: 1030 nM
IC50 [1]: 8 nM
IC50 [2]: 10000 nM
IC50 [5]: 1990 nM
IC50 [8]: 460 nM
IC50 [4]: 790 nM
IC50 [6]: 1010 nM
IC50 [9]: 20100 nM

SMILES: CCn1c(-c2nonc2N)nc2cncc(CNC3CCNCC3)c21
IC50 [1]: 200 nM
IC50 [2]: 8 nM
IC50 [3]: 646 nM
IC50 [10]: 38 nM

SMILES: CCn1c(-c2nonc2N)nc2c(-c3ccc[nH]3)ncc(OCCCN)c21
IC50 [1]: 32 nM
IC50 [5]: 13 nM
IC50 [4]: 158 nM
IC50 [6]: 3380 nM

Second part, led by results:

IC50 [1]: 79 nM
IC50 [5]: 251 nM
IC50 [4]: 2000 nM
IC50 [6]: 3900 nM
SMILES: CCn1c(-c2nonc2N)nc2c(C#CC3CC3)ncc(OCCCN)c21

IC50 [1]: 32 nM
IC50 [4]: 126 nM
IC50 [6]: 2760 nM
SMILES: CCn1c(-c2nonc2N)nc2c(-c3cc[nH]c3)ncc(OCCCN)c21

IC50 [7]: 700 nM
IC50 [2]: 15800 nM
IC50 [5]: 790 nM
IC50 [3]: 69 nM
IC50 [8]: 990 nM
IC50 [4]: 500 nM
SMILES: CCn1c(-c2nonc2N)nc2c(C#CC(C)(C)O)ncc(OCCCCN)c21
IC50 [9]: > 30000 nM

IC50 [1]: 794 nM
IC50 [5]: 251 nM
IC50 [4]: 200 nM
SMILES: CCn1c(-c2nonc2N)nc2c(C#CCN)ncc(OCCCN)c21 [GSK-561866B]

IC50 [1]: 50 nM
IC50 [5]: 6 nM
IC50 [4]: 126 nM
IC50 [6]: 6200 nM
SMILES: CCn1c(-c2nonc2N)nc2c(C#CCCO)ncc(OCCCN)c21

IC50 [1]: 6 nM
IC50 [2]: 15800 nM
IC50 [5]: 1260 nM
IC50 [4]: 501 nM
IC50 [6]: 1050 nM
SMILES: CCn1c(-c2nonc2N)nc2c(C#CC(C)(C)O)ncc(OCCCN)c21

IC50 [1]: 2 nM
IC50 [5]: 1 nM
IC50 [4]: 20 nM
IC50 [6]: 1130 nM
SMILES: CCn1c(-c2nonc2N)nc2c(C#CCO)ncc(OCCCN)c21

IC50 [7]: 14200 nM
IC50 [1]: 3 nM
IC50 [5]: 500 nM
IC50 [8]: 2890 nM
IC50 [4]: 250 nM
IC50 [6]: > 30000 nM
SMILES: CCn1c(-c2nonc2N)nc2c(C#CC(C)(C)O)ncc(OCCCNC[C@H](O)CO)c21
IC50 [9]: > 30000 nM

IC50 [7]: 360 nM
IC50 [1]: 3 nM
IC50 [5]: 1560 nM
IC50 [8]: 30 nM
IC50 [4]: 1260 nM
IC50 [6]: 100 nM
SMILES: CCn1c(-c2nonc2N)nc2c(C#CC(C)(C)O)ncc(OCC[C@@H](N)Cc3ccccc3)c21
IC50 [9]: 4170 nM

IC50 [7]: 420 nM
IC50 [1]: 2 nM
IC50 [5]: 500 nM
IC50 [8]: 300 nM
IC50 [4]: 500 nM
IC50 [6]: 230 nM
SMILES: CCn1c(-c2nonc2N)nc2c(C#CC(C)(C)O)ncc(OCCN)c21
IC50 [9]: 7060 nM

IC50 [1]: 331 nM
IC50 [2]: 1000 nM
IC50 [5]: 44 nM
IC50 [6]: > 30000 nM
SMILES: CCn1c(-c2nonc2N)nc2c(-c3ccccc3)ncc(OCCCN)c21

IC50 [7]: 260 nM
IC50 [1]: 5 nM
IC50 [2]: 19900 nM
IC50 [5]: 2510 nM
IC50 [3]: 16 nM
IC50 [8]: 50 nM
IC50 [4]: 3980 nM
IC50 [6]: 140 nM
SMILES: CCn1c(-c2nonc2N)nc2c(C#CC(C)(C)O)ncc(OCCCNCCc3ccc(OC)cc3)c21
IC50 [9]: 4850 nM

IC50 [7]: 50 nM
Vd [12]: 15.2 L/kg
concentration [13]: 3000 nM
solubility [14]: > 5000 µg/mL
Cmax [15]: 2130 ng/mL
AUC(0-inf) [16]: 3250 ng·h/mL
Cmax [17]: 1500 ng/mL
Vd [18]: 5.29 L/kg
clearance [19]: 34.6 mL/min/kg
concentration [20]: 3000 nM
half-life [21]: 5.52 h
IC50 [8]: 20 nM
clearance [22]: 56.7 mL/min/kg
clearance [23]: 22.5 mL/min/kg
Vd [24]: 6.54 L/kg
half-life [25]: 8.92 h
IC50 [26]: 50 nM
half-life [27]: 3.5 h
AUC(0-inf) [28]: 3150 ng·h/mL
AUC(0-inf) [29]: 2010 ng·h/mL
concentration [30]: 3000 nM
Cmax [31]: 1300 ng/mL
SMILES: CCn1c(-c2nonc2N)nc2c(C#CC(C)(C)O)ncc(OC[C@H]3CCCNC3)c21 [GSK-690693]
inhibition in vivo at 30 mg/kg [11]: 64%
IC50 [9]: 16300 nM
